Like-named read-outs stand apart in the source and are kept apart here.
Legend:
hTRPA1 [1] = biological target: T1, hTRPA1 (Homo sapiens, UniProt O75762); experiment: hTrpA1 IC50 measured in 1% RSA (rat serum albumin); assay type: cell-based
hTRPA1 [2] = biological target: T1, hTRPA1; experiment: Whole-cell patch clamp block of inward current through hTRPA1; assay type: cell-based
Experimental: (§1) Data for TRPA1 inhibition and the selectivity of TRPA1 inhibition was obtained by this method for the compound of Formula (Ia) and included in Table 1 and Table 2. All currents were recorded in whole-cell configuration using EPC-9 and EPC-10 amplifiers and Patchmaster software (HEKA). […] The standard pipette solution consisted of 140 mM CsAsp, 10 mM EGTA, 10 mM HEPES, 2.27 mM MgCl2, 1.91 mM CaCl2, 4 mM MgATP, and 0.1-0.3 mM Na2GTP, with pH adjusted to 7.2 with CsOH. In addition, a solution containing 145 mM CsCl, 10 mM HEPES, 10 mM EGTA and 1 mM MgCl2 (pH 7.2 adjusted with CsOH) can be used. The standard bath solution contained 150 mM NaCl, 10 mM HEPES, 10 mM glucose, 4.5 mM KCl, 1 mM EGTA, 3 mM MgCl2, with pH adjusted to 7.4 with NaOH. In some instances, 2 mM CaCl2 was added in place of EGTA and the concentration of MgCl2 was reduced to 1 mM.
(§2) Data were collected either by continuous recordings at −60 mV or by applying voltage ramps from a holding potential of 0 mV every 4 s. Continuous recordings were collected at 400 Hz and digitally filtered off-line at 10 Hz for presentation. Voltage ramps were applied from −100 mV to 100 mV over the course of 400 ms, and data were collected at 10 kHz and filtered at 2.9 kHz. Inward and outward currents were analyzed from the ramps at −80 and 80 mV, respectively. Liquid junction potential correction was not used.
(§3) Solutions were switched using a gravity-fed continuous focal perfusion system. To achieve rapid temperature changes, two temperature control and perfusion systems were employed simultaneously. For temperatures ≧22° C., a Warner Instruments bipolar temperature controller (TC-344B) and inline heater (SHM-8) were used. […] Temperatures were confirmed using a thermistor (Warner Instruments, TA-29), with temperatures at the recorded cell estimated to be within +/−2° C. of those reported.
IC50 of compounds was estimated by testing each compound at 5 micromolar and 500 nanomolar. […] IC50 for compounds between 500 nanomolar and 5 micromolar was similarly estimated. Compounds blocking 50% or more at 500 nanomolar are retested at multiple concentrations, and the % block at each is fitted by standard equations to determine IC50 accurately using a 5-6 point concentration/response experiment.

dTRPA1 = dTRPA1 (Canis lupus familiaris, UniProt A0A8I3Q1Q7); experiment: Whole-cell patch clamp block of inward current through dTRPA1; assay type: cell-based, Dog; conditions: class symbol; read-out: Potency (IC50) Dog
dTRPA1, sequence (A0A8I3Q1Q7 1-1118): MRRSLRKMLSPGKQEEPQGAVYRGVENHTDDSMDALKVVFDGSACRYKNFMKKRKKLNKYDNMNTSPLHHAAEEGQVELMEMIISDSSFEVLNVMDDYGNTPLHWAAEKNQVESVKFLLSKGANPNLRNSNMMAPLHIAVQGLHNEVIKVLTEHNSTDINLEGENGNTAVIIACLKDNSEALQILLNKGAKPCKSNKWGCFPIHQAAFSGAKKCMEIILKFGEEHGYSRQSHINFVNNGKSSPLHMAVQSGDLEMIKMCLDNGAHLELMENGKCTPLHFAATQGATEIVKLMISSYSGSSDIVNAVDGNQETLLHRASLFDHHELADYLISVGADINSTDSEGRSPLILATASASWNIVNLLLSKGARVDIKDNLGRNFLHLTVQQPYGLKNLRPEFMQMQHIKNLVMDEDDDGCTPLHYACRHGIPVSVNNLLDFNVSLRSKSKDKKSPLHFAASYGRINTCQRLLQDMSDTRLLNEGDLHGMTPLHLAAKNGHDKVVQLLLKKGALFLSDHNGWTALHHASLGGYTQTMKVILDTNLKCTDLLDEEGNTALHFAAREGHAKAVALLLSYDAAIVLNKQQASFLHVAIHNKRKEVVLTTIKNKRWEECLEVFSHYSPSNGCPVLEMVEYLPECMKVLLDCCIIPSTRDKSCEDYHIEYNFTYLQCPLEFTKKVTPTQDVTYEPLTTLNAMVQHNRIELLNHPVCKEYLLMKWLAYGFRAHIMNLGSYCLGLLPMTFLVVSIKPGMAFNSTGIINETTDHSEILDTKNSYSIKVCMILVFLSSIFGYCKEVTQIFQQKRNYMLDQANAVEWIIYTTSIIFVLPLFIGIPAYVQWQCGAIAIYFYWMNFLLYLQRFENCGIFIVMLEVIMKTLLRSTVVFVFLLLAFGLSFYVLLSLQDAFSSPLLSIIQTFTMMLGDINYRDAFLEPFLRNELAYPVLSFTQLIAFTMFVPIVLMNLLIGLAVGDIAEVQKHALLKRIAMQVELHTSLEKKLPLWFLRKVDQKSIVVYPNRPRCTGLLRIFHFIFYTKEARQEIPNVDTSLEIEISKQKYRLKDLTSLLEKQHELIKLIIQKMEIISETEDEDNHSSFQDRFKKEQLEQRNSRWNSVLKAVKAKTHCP
Experimental: as §1, §2, §3
(§4) IC50 of compounds was estimated by testing each compound at 5 micromolar and 500 nanomolar. […] IC50 for compounds between 500 nanomolar and 5 micromolar was similarly estimated. […]

[3] = Human plasma protein binding by equilibrium dialysis; assay type: in vitro ADME; conditions: percentage bound
Experimental: The amount of compound in buffer (free fraction) and the amount of compound associated with the plasma fraction is determined by equilibrium dialysis; the amount of compound bound is expressed as a percentage. (Banker et al., Journal of Pharmaceutical Sciences (2003) 92(5): 967-74.)

[4] = Oral bioavailability pharmacokinetic study; assay type: in vivo; conditions: rat, plasma, PO versus IV
Experimental: The potency and pharmacokinetic (PK) properties of (a) the compound of Formula (Ia); and (b) comparator compound of Formula (III) were evaluated. Bioavailability was measured as well. A pharmacokinetic study was performed to obtain a plasma drug concentration vs time plot for the drug after both intravenous (IV) and oral (PO) administration. The absolute bioavailability is the dose-corrected area under curve (AUC) non-intravenous divided by AUC intravenous. The formula for calculating F for a drug administered by the oral route (PO) is given below.
The bioavailability was calculated using the equation shown below:
% F=AUC PO×Dose IV/AUC IV×Dose PO

[5] = 7-day repeat dose i.p. screening toxicity study in rats; assay type: in vivo, rat; conditions: rats; 50 mg/kg/day i.p. for 7 consecutive days
Experimental: The compound of Formula (Ia) was evaluated in a 7-day repeat dose screening toxicity study in female rats. In order to maximize systemic exposure, rats were administered compound of Formula (Ia) i.p. at 50 mg/kg/day for 7 consecutive days, to obtain the results shown in FIG. 6. Clinical chemistry parameters were evaluated on Days 3 and 8. Histopathology was performed on select organs including the liver, kidney, spleen, and lung.

rTRPA1 = rTRPA1 (Rattus norvegicus, UniProt Q6RI86); experiment: Whole-cell patch clamp block of inward current through rTRPA1; assay type: cell-based; conditions: class symbol; read-out: Potency (IC50) Rat
rTRPA1, sequence (Q6RI86 whole entry): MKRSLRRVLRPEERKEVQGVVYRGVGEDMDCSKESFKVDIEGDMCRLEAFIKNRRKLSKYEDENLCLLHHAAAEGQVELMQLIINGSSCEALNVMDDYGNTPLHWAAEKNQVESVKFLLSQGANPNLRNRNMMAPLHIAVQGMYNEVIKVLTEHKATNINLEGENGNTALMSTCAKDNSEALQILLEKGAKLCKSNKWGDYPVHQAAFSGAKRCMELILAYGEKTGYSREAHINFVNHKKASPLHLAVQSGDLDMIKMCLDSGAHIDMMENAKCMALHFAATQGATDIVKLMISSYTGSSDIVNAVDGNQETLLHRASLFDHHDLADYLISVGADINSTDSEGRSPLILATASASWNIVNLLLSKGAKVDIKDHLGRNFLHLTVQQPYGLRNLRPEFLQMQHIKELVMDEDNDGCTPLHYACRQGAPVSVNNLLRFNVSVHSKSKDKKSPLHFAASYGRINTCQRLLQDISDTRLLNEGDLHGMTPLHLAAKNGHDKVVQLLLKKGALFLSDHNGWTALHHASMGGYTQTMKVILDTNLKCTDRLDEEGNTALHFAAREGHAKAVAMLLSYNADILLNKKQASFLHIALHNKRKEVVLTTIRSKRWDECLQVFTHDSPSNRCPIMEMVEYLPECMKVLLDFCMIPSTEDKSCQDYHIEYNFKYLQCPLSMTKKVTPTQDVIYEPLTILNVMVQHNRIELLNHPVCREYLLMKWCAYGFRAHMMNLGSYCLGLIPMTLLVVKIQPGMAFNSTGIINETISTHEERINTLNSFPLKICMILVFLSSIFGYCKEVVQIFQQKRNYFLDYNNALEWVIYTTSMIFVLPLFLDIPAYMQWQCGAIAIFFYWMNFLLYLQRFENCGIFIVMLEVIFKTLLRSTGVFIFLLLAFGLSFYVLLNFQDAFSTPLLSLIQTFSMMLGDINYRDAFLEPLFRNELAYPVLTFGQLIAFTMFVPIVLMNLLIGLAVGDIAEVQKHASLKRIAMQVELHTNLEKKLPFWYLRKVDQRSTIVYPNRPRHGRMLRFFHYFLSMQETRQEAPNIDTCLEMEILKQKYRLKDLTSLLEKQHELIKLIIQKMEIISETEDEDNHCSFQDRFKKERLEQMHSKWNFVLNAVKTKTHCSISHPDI
Experimental: as §1, §2, §3, §4

[6] = test system: formalin-induced pain behavior; experiment: Formalin-induced pain behavior in vivo rodent model; parameters: species or system rat; conditions: for # of Flinches: Table 3c, vehicle 120
Description: The data shown in Tables 3a, 3b, and 3c and FIG. 2 were obtained by administering a pharmaceutical composition comprising the compound of Formula (Ia) to rodents in the formalin-induced pain duration at various doses according to Example 5. Specifically, the data in Tables 3a, 3b, and 3c and FIG. 2 were obtained by intraperitoneal (i.p.) administration of compositions containing different concentrations of the compound of Formula (Ia), a comparator composition containing recited amounts of the comparator compound (e.g., 150 mg/kg of the comparator compound of Formula (II) in Table 3a) and a control composition containing the vehicle (e.g., without the compound of Formula (Ia) or a comparator compound).
The compound of Formula (Ia) and the comparator compounds of Formula (II) and Formula (III) were tested in the formalin-induced pain test reported by Dubuisson et al., Pain 1977 December; 4(2):161-74 (incorporated herein by reference in its entirety). Dubuisson et al. (1977) describe a method for assessing pain and analgesia in rats and cats. Briefly, dilute formalin (50 μL of 3% formalin) is injected into the plantar surface of the hind paw. […] The individual responsible for counting the pain behaviors in a particular study is blinded to the treatment groups.
Rats were treated with the HCl salt of Compound (Ia) at various doses (3, 10, 30, and 50 mg/kg, IP) or with the vehicle (IP).

[7] = test system: serum biomarkers of hepatotoxicity (ALT, AST, ALP, GGT); experiment: Hepatotoxicity serum biomarker study in dogs, oral dose; assay type: in vivo, dog; conditions: for ALT level elevation: single PO dose of 50 mg/kg
Experimental: The compound of Formula (Ia) was orally dosed to […] at dose levels of 5, 15 or 50 mg/kg using 30% Sulfobutylether β-cyclodextrin as the vehicle for assessment of safety as measured via serum chemistry biomarkers of hepatotoxicity or bile duct injury FIG. 5A, showing measurements of alanine aminotranferease [ALT], aspartate aminotranferease [AST], alkaline phosphatase [ALP] and gamma-glutamyl transferase [GGT] in the dogs at each dose level (each bar represents a measurement from 1 dog in the study). […] For example, the ALT levels were elevated up to about 60-fold in male dogs and up to about 130-fold in female beagle dogs following a single PO dose of 50 mg/kg.

[8] = test system: CFA-induced cold allodynia; experiment: Complete Freund's Adjuvant (CFA) cold allodynia rodent pain model; assay type: in vivo; conditions: 150 mg/kg; vehicle 19.8
Experimental: The compound of Formula (Ia) is also active in rodent models of pain in vivo induced by cold allodynia following chronic Complete Freund's Adjuvant-induced inflammation, as described in Example 6. […] The compound of Formula (Ia), the comparator compound of Formula (II) and ketoprofen were tested by the CFA-induced pain test method reported in del Camino et al., J. Neurosci., 30(45):15165-15174, incorporated herein by reference in its entirety. Briefly, the hind paw was sensitized to cold temperature (allodynic), by administering 0.1 mL of Complete Freund's Adjuvant (CFA) to the left hind paw. 2-3 days later, the time taken for the animal to lift its CFA-injected paw was recorded compared to its un-injected normal right hind paw. […] To avoid tissue damage the maximum cut-off time was 5 minutes. Animals that were allodynic (average PWL to the first three pain behaviors <150 seconds for the CFA-injected hind paw: ˜≧50% difference between the normal and CFA-injected paw) were included in the study and subsequently randomized across treatment groups. The following day, the animals were dosed under blinded conditions. Following the 1-2 hour pre-treatment time, the post-dose PWL readings were again taken. The efficacy of the drug treatment was assessed by comparing the PWL in the drug treatment animals to those animals that received the vehicle.

[9] = hTRPA1, Human, current activation 10 micromolar AITC, whole cell patch, read-out: IC50 Inward current

T1 sequence (O75762 whole entry): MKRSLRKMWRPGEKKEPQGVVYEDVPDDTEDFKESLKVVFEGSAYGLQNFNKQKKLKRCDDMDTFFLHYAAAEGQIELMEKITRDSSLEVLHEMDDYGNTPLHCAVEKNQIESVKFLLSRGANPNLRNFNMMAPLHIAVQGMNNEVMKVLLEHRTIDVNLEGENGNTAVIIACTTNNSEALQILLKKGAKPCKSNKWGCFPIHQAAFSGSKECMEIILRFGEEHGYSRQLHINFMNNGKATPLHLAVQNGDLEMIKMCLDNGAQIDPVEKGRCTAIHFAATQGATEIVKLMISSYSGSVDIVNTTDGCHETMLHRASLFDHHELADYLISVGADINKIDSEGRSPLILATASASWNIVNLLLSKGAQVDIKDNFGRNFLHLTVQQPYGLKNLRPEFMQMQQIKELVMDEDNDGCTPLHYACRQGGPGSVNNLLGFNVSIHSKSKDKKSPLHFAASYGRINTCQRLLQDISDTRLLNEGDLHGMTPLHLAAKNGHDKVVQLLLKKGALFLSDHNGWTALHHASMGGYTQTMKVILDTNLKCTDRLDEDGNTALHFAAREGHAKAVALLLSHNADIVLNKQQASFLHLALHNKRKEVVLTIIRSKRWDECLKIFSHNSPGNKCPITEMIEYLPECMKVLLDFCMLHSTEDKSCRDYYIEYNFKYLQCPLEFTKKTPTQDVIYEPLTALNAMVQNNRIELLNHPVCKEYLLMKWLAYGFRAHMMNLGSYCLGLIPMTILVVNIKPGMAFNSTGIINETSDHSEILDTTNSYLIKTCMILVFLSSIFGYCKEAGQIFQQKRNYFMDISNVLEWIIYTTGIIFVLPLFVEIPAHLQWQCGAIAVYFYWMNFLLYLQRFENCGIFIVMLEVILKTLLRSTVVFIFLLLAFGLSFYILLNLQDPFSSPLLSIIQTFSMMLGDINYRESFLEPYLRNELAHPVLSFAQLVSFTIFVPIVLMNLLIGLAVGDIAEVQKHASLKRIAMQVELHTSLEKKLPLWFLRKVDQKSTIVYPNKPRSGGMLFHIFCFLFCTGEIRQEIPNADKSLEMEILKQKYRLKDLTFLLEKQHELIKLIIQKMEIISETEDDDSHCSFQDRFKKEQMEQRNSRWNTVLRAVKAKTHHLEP

**Q.** Which results are given for `C[C@@H]1CCCN1c1ncc(-c2cccc(NC(=O)Cn3cnc4c3c(=O)n(C)c(=O)n4C)n2)cn1` [Formula (Ib)]?
**A.** IC50 (hTRPA1 [1]): 15200 nM; IC50 (hTRPA1 [2]; [9]): 77 nM

**Q.** For `C[C@H]1CCCN1c1ccc(-c2csc(NC(=O)Cn3cnc4c3c(=O)n(C)c(=O)n4C)n2)cc1F` [Formula (III), reference compound], which IC50 (dTRPA1) is on record?
**A.** Its IC50 is under 25 nM.

**Q.** What about the fraction unbound [3] of the same compound?
**A.** Its fraction unbound is under 0.01.

**Q.** And the bioavailability ([4]; oral, fed rats, read-out: Bioavailability (Rat) Fed)?
**A.** The bioavailability was 1 to 25%.

**Q.** And the bioavailability ([4]; po, fasted rats, read-out: Bioavailability (Rat) Fasted)?
**A.** The bioavailability was 25 to 50%.

**Q.** And the bioavailability ([4]; po, fed rats, read-out: Bioavailability (Rat) Fed)?
**A.** The bioavailability was 1 to 25%.

**Q.** What about the “effect on serum biomarkers of hepatotoxicity” value [5] of the same compound?
**A.** Its value is “did elevate serum biomarkers of hepatotoxicity as compared to Formula (Ia)”.

**Q.** And the IC50 (rTRPA1)?
**A.** The IC50 was 50 to 100 nM.

**Q.** What about the “Duration of Pain Behavior” value ([6]; 50 mg/kg, Table 3b, vehicle 77.2) of the same compound?
**A.** Its value is 44.3 s.

**Q.** What about the “effect on serum biomarkers of hepatotoxicity” value ([7]; dogs, 50 mg/kg PO) of the same compound?
**A.** The value was “did elevate serum biomarkers of hepatotoxicity”.

**Q.** And the ALT level elevation ([7]; female beagle dogs)?
**A.** The ALT level elevation was “up to 130 fold”.

**Q.** What about the ALT level elevation ([7]; male dogs) of the same compound?
**A.** Its ALT level elevation is “up to 60 fold”.

**Q.** And the IC50 (hTRPA1 [2]; [9])?
**A.** Its IC50 is under 25 nM.

**Q.** And the IC50 (hTRPA1 [2]; hTRPA1, class symbol, read-out: Potency (IC50) Human)?
**A.** The IC50 was under 25 nM.

**Q.** For `NCC1(CC(=O)O)CCCCC1` [Gabapentin], which “# of Flinches” value ([6]; reference, dose not given) is on record?
**A.** The value was 75.

**Q.** What does the source list for `CC(C)c1ccc(NC(=O)Cn2cnc3c2c(=O)n(C)c(=O)n3C)cc1` [Formula (II)]?
**A.** Change in Paw Withdrawal Latency [8]: 142.2; # of Flinches ([6]; 30 mg/kg): 88; # of Flinches ([6]; 100 mg/kg): 62; Duration of Pain Behavior ([6]; 150 mg/kg, Table 3a, vehicle 88.6): 40.0 s; # of Flinches ([6]; 300 mg/kg): 43

From patent publication US20140158116A1, “INHIBITING TRPA1 FOR THE TREATMENT OF ASTHMA” (Cubist Pharmaceuticals, Inc., priority 2012, published 2014)
